According to the supplement of paper PMC12463676, “Small-molecule dissolution of stress granules by redox modulation benefits ALS models” (Nature Chemical Biology, 2025):

Experiments:
lipoamide = compound: NC(=O)CCCCC1CCSS1 [lipoamide]; test: thermal stability z-score vs DMSO; higher = more thermally stabilized by treatment; settings: HeLa, lipoamide concentration 100 µM
Procedure: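 Cellular thermal proteome profiling in HeLa cells. Cells were treated with 100 µM lipoamide for 1 h, with or without 1 mM arsenate for a further 1 h, then heated to ten temperatures (37-66.3 °C), and soluble protein was quantified by TMT mass spectrometry relative to 0.1% DMSO controls. The thermal stability score (sum of log2 fold changes minus the abundance score) was transformed to a z-score; mean of n = 3 experiments.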

potassium arsenate = compound: O=[As]([O-])(O)O.[K+] [potassium arsenate]; test: as above; settings: HeLa; arsenate concentration 1 mM
Procedure: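 Cellular thermal proteome profiling in HeLa cells treated with 1 mM arsenate for 1 h (DMSO pretreatment), heated to ten temperatures (37-66.3 °C). Soluble protein was quantified by TMT mass spectrometry relative to DMSO controls; the thermal stability score was transformed to a z-score; mean of n = 3 experiments.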

[1] = arsenate co-treatment: 1 mM arsenate 1 h
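Note: each temperature applied for 3 min, abundance score taken as mean log2 fold change at the two lowest temperatures, z-score obtained by mean subtraction and division by SD.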

Sequence of UniProt O43426 (O43426 whole entry): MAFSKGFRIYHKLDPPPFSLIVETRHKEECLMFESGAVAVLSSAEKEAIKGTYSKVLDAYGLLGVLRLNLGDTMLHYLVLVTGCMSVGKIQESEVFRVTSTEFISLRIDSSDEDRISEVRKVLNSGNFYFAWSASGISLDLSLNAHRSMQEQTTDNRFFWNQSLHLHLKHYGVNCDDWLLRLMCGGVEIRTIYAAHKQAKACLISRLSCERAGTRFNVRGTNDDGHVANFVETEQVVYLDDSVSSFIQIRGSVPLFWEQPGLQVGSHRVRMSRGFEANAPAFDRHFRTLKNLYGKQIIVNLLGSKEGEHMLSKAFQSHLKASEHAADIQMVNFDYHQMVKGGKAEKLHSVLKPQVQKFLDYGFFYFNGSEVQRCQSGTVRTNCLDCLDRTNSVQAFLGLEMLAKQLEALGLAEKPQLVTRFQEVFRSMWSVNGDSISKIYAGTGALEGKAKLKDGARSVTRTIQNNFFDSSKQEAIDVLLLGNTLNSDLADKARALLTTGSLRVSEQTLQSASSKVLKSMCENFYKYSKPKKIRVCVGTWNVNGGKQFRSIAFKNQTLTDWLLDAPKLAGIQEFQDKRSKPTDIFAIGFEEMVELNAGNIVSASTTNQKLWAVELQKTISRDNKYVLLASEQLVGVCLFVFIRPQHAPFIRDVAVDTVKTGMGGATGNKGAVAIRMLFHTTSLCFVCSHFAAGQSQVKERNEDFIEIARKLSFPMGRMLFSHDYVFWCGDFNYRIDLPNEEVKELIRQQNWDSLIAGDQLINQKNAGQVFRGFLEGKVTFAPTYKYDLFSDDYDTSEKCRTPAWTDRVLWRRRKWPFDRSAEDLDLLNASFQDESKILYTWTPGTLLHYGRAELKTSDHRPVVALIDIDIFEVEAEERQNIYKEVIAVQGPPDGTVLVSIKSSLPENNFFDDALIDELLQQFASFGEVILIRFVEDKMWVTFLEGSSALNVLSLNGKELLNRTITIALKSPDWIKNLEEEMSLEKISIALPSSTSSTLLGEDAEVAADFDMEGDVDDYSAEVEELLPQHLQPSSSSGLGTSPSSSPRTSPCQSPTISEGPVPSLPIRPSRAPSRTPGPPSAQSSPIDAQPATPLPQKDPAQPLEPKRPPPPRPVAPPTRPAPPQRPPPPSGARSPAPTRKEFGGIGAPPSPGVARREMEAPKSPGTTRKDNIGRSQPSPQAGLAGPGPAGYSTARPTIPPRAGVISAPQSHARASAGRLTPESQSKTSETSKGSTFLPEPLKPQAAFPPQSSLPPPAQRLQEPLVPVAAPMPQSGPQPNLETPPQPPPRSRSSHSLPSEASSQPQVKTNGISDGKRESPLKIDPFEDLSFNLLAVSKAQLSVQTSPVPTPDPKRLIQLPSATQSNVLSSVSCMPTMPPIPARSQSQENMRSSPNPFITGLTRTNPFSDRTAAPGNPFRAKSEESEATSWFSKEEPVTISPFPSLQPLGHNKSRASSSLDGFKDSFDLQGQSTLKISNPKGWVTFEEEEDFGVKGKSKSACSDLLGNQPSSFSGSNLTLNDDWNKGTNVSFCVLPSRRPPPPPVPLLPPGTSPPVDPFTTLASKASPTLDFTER
Sequence of UniProt Q99590 (Q99590 whole entry): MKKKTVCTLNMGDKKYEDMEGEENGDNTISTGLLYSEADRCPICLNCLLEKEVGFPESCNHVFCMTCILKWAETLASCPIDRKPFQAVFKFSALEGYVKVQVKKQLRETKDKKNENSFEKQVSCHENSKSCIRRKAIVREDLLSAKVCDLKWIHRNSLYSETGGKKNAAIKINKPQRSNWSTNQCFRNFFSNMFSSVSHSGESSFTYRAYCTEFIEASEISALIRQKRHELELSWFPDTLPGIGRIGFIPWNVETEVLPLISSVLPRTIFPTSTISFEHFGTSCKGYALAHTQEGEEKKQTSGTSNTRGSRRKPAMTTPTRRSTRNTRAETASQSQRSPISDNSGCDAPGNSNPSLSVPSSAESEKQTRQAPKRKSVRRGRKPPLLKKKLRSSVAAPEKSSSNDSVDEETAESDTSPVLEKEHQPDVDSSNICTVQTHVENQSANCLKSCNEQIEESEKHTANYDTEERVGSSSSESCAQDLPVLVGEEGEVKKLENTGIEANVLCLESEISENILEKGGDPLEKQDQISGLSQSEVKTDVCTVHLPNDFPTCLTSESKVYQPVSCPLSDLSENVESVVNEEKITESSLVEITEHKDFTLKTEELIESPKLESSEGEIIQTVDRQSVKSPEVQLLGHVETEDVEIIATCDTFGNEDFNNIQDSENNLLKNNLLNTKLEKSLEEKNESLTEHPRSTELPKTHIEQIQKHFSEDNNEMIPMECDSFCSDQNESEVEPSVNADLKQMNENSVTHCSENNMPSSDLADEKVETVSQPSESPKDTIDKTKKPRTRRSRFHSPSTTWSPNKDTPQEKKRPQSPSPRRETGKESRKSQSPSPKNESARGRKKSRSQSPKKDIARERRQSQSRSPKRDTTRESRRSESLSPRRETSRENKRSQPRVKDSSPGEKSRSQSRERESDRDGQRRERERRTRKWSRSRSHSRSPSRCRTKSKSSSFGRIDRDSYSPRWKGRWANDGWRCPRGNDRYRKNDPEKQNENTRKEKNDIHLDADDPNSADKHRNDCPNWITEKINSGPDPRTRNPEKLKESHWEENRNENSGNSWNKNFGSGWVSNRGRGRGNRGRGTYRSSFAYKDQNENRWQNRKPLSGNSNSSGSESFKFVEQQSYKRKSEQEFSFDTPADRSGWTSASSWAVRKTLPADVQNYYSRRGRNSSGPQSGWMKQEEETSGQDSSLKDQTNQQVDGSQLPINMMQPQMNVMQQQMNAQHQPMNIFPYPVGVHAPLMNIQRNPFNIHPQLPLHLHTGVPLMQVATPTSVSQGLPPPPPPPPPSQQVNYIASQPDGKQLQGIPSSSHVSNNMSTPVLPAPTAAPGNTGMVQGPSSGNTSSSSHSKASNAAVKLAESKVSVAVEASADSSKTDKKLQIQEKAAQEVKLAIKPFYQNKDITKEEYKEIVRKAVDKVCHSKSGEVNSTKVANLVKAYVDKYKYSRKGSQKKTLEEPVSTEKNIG
Sequence of UniProt Q9NWL6 (Q9NWL6 whole entry): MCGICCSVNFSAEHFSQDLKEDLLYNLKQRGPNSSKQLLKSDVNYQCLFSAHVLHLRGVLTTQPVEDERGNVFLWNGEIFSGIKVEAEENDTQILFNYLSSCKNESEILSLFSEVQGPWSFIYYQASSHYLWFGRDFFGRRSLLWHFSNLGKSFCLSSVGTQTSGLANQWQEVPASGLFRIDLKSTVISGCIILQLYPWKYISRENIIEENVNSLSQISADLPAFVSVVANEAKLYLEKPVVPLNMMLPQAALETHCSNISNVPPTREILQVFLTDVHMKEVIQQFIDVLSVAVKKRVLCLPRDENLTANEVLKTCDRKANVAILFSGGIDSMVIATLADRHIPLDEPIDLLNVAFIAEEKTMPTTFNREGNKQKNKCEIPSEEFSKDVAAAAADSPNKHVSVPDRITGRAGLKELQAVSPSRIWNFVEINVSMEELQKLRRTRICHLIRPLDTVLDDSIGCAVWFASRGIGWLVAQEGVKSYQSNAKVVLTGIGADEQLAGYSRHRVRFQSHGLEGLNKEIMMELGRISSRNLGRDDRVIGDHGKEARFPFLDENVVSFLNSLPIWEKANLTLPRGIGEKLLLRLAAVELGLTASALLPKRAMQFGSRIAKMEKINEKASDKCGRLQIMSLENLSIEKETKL
Sequence of UniProt Q9UKX7 (Q9UKX7 whole entry): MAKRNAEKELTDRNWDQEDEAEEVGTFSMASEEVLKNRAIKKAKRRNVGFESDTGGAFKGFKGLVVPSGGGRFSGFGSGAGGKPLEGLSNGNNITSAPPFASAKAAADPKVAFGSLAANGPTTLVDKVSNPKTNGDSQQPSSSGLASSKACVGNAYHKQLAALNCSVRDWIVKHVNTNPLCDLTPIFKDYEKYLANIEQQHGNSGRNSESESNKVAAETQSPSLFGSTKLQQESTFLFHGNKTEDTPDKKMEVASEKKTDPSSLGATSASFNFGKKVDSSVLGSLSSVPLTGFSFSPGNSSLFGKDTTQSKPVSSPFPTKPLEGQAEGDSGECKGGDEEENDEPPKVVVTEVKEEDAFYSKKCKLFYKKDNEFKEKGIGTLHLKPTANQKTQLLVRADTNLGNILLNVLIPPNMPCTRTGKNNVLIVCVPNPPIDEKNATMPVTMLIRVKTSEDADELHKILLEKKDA
Sequence of UniProt P42765 (P42765 whole entry): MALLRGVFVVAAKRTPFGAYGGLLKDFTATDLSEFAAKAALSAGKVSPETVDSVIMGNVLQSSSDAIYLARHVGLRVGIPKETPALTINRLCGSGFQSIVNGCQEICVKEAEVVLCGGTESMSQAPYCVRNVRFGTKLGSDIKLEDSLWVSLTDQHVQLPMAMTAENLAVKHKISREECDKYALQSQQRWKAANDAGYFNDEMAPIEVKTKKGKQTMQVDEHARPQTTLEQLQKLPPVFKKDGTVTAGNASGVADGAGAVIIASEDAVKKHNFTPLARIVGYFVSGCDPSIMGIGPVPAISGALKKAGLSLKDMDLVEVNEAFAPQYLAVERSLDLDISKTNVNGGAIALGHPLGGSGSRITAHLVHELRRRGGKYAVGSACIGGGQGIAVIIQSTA
Sequence of UniProt O75674 (O75674 whole entry): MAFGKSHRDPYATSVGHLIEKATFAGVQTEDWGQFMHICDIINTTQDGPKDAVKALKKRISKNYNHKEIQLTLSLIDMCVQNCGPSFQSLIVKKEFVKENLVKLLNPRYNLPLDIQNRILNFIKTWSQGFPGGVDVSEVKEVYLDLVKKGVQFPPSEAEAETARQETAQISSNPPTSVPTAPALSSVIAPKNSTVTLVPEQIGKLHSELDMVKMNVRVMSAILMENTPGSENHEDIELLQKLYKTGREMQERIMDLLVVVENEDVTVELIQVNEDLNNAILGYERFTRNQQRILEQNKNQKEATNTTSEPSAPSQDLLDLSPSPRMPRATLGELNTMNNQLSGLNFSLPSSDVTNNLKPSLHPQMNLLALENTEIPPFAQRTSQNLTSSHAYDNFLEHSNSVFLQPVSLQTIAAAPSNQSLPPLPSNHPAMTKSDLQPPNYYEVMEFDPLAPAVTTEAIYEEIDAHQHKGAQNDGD

Work on ITSN1 (UniProt Q15811) yielded a thermal stability z-score (lipoamide; [1]) of -0.734, a thermal stability z-score (lipoamide; arsenate co-treatment: none) of -0.15 and a thermal stability z-score (potassium arsenate) of 0.365.

Work on SAE1 (UniProt Q9UBE0) yielded a thermal stability z-score (lipoamide; [1]) of -0.694, a thermal stability z-score (lipoamide; arsenate co-treatment: none) of -0.826 and a thermal stability z-score (potassium arsenate) of -0.458.

Work on LMTK2 (UniProt Q8IWU2) yielded a thermal stability z-score (lipoamide; [1]) of -0.465, a thermal stability z-score (lipoamide; arsenate co-treatment: none) of -0.397 and a thermal stability z-score (potassium arsenate) of 1.04.

SRM (UniProt P19623) showed a thermal stability z-score (lipoamide; [1]) of -0.392, a thermal stability z-score (lipoamide; arsenate co-treatment: none) of -0.0266 and a thermal stability z-score (potassium arsenate) of -0.141.

In the case of RB1CC1 (UniProt Q8TDY2), the thermal stability z-score (lipoamide; [1]) was -0.502, the thermal stability z-score (lipoamide; arsenate co-treatment: none) was -0.143 and the thermal stability z-score (potassium arsenate) was 0.893.

G3V3G9 (UniProt P40855) showed a thermal stability z-score (lipoamide; [1]) of -0.319, a thermal stability z-score (lipoamide; arsenate co-treatment: none) of -0.13 and a thermal stability z-score (potassium arsenate) of -0.695.

NUP50 (UniProt Q9UKX7) was tested, and the thermal stability z-score (lipoamide; [1]) was 1.4, the thermal stability z-score (lipoamide; arsenate co-treatment: none) was 1.06 and the thermal stability z-score (potassium arsenate) was 0.502.

For FKBP9 (UniProt O95302), the thermal stability z-score (lipoamide; [1]) was -3.58, the thermal stability z-score (lipoamide; arsenate co-treatment: none) was -2.22 and the thermal stability z-score (potassium arsenate) was 0.508.

For UBAP2 (UniProt Q5T6F2), the thermal stability z-score (lipoamide; [1]) was 0.26, the thermal stability z-score (lipoamide; arsenate co-treatment: none) was -0.00688 and the thermal stability z-score (potassium arsenate) was -0.47.

In the case of PRPS2 (UniProt P11908), the thermal stability z-score (lipoamide; [1]) was 0.114, the thermal stability z-score (lipoamide; arsenate co-treatment: none) was -0.199 and the thermal stability z-score (potassium arsenate) was -1.24.

MRTO4 (UniProt Q9UKD2) was tested, and the thermal stability z-score (lipoamide; [1]) was 0.246, the thermal stability z-score (lipoamide; arsenate co-treatment: none) was 0.308 and the thermal stability z-score (potassium arsenate) was 0.036.

For NOP16 (UniProt Q9Y3C1), the thermal stability z-score (lipoamide; [1]) was -0.153, the thermal stability z-score (lipoamide; arsenate co-treatment: none) was -0.677 and the thermal stability z-score (potassium arsenate) was -1.68.

SYNJ1 (UniProt O43426) showed a thermal stability z-score (lipoamide; [1]) of 0.305, a thermal stability z-score (lipoamide; arsenate co-treatment: none) of -0.14 and a thermal stability z-score (potassium arsenate) of -0.277.

MRPL48 (UniProt Q96GC5) showed a thermal stability z-score (lipoamide; [1]) of -0.0867, a thermal stability z-score (lipoamide; arsenate co-treatment: none) of 0.198 and a thermal stability z-score (potassium arsenate) of 0.101.

FRA10AC1 (UniProt Q70Z53) showed a thermal stability z-score (lipoamide; [1]) of 0.081, a thermal stability z-score (lipoamide; arsenate co-treatment: none) of 0.0654 and a thermal stability z-score (potassium arsenate) of 0.108.

For SCAF11 (UniProt Q99590), the thermal stability z-score (lipoamide; [1]) was 1.24, the thermal stability z-score (lipoamide; arsenate co-treatment: none) was 0.982 and the thermal stability z-score (potassium arsenate) was -1.02.

EEF2 (UniProt P13639) showed a thermal stability z-score (lipoamide; [1]) of -0.0517, a thermal stability z-score (lipoamide; arsenate co-treatment: none) of 0.0227 and a thermal stability z-score (potassium arsenate) of -0.39.

For MAP2K4 (UniProt P45985), the thermal stability z-score (lipoamide; [1]) was -0.37, the thermal stability z-score (lipoamide; arsenate co-treatment: none) was 0.139 and the thermal stability z-score (potassium arsenate) was -0.444.

For ZBTB7A (UniProt O95365), the thermal stability z-score (lipoamide; [1]) was 0.428, the thermal stability z-score (lipoamide; arsenate co-treatment: none) was -0.495 and the thermal stability z-score (potassium arsenate) was -1.13.

Work on PIK3CB (UniProt P42338) yielded a thermal stability z-score (lipoamide; [1]) of -0.054, a thermal stability z-score (lipoamide; arsenate co-treatment: none) of -0.193 and a thermal stability z-score (potassium arsenate) of -0.371.

MARCKSL1 (UniProt P49006) showed a thermal stability z-score (lipoamide; [1]) of 0.667, a thermal stability z-score (lipoamide; arsenate co-treatment: none) of 0.788 and a thermal stability z-score (potassium arsenate) of 0.248.

RSRC1 (UniProt Q96IZ7) was tested, and the thermal stability z-score (lipoamide; [1]) was 1.06, the thermal stability z-score (lipoamide; arsenate co-treatment: none) was 0.987 and the thermal stability z-score (potassium arsenate) was 1.14.

With URI1 (UniProt O94763) the thermal stability z-score (lipoamide; [1]) was -0.325, the thermal stability z-score (lipoamide; arsenate co-treatment: none) was -0.193 and the thermal stability z-score (potassium arsenate) was 0.52.

GGA1 (UniProt Q9UJY5) showed a thermal stability z-score (lipoamide; [1]) of -0.523, a thermal stability z-score (lipoamide; arsenate co-treatment: none) of -0.393 and a thermal stability z-score (potassium arsenate) of 0.27.

With MB21D2 (UniProt Q8IYB1) the thermal stability z-score (lipoamide; [1]) was 0.116, the thermal stability z-score (lipoamide; arsenate co-treatment: none) was -0.198 and the thermal stability z-score (potassium arsenate) was 0.483.

For MTR (UniProt Q99707), the thermal stability z-score (lipoamide; [1]) was -0.354, the thermal stability z-score (lipoamide; arsenate co-treatment: none) was -0.00141 and the thermal stability z-score (potassium arsenate) was 0.289.

CFDP1 (UniProt Q9UEE9) showed a thermal stability z-score (lipoamide; [1]) of 0.254, a thermal stability z-score (lipoamide; arsenate co-treatment: none) of 0.185 and a thermal stability z-score (potassium arsenate) of -0.21.

For EIF3I (UniProt Q13347), the thermal stability z-score (lipoamide; [1]) was 0.544, the thermal stability z-score (lipoamide; arsenate co-treatment: none) was 0.0305 and the thermal stability z-score (potassium arsenate) was -0.363.

Work on ENAH (UniProt Q8N8S7) yielded a thermal stability z-score (lipoamide; [1]) of -0.14, a thermal stability z-score (lipoamide; arsenate co-treatment: none) of 0.013 and a thermal stability z-score (potassium arsenate) of -0.515.

TOM1L1 (UniProt O75674) gave a thermal stability z-score (lipoamide; [1]) of -1, a thermal stability z-score (lipoamide; arsenate co-treatment: none) of -0.807 and a thermal stability z-score (potassium arsenate) of -0.623.

ASNSD1 (UniProt Q9NWL6) was tested, and the thermal stability z-score (lipoamide; [1]) was -0.942, the thermal stability z-score (lipoamide; arsenate co-treatment: none) was -0.0608 and the thermal stability z-score (potassium arsenate) was -0.734.

In the case of CD70 (UniProt P32970), the thermal stability z-score (lipoamide; [1]) was 1.03, the thermal stability z-score (lipoamide; arsenate co-treatment: none) was 0.355 and the thermal stability z-score (potassium arsenate) was -0.313.

For EIF1 (UniProt P41567), the thermal stability z-score (lipoamide; [1]) was -0.179, the thermal stability z-score (lipoamide; arsenate co-treatment: none) was -0.0958 and the thermal stability z-score (potassium arsenate) was -0.193.

ACAA2 (UniProt P42765) showed a thermal stability z-score (lipoamide; [1]) of 0.0666, a thermal stability z-score (lipoamide; arsenate co-treatment: none) of 0.0527 and a thermal stability z-score (potassium arsenate) of -0.24.

Target POLR2C (UniProt P19387) has a thermal stability z-score (lipoamide; [1]) of 0.705, a thermal stability z-score (lipoamide; arsenate co-treatment: none) of 1.15 and a thermal stability z-score (potassium arsenate) of 0.481.
